Measurements as given in the NIST ThermoML archive (doi:10.1007/s10765-014-1740-z).
Numbers after ± are expanded uncertainties.

Settings: Crystal; visual observation

- Triple point temperature: 537 ± 10 K
Compound: O=c1cc(-c2ccccc2)oc2cc(O)c(O)c(O)c12 [baicalein]
